Biological target: Macrophage colony-stimulating factor 1 receptor (Homo sapiens, UniProt P07333)
Assay: Fluorescence Polarization Competition Assay
Conditions: pH 7.5
Source text: An autophosphorylation, fluroescence polarization competition immunoassay was used to determine the potency for c-fms inhibition.

Chain of Macrophage colony-stimulating factor 1 receptor (P07333 whole entry): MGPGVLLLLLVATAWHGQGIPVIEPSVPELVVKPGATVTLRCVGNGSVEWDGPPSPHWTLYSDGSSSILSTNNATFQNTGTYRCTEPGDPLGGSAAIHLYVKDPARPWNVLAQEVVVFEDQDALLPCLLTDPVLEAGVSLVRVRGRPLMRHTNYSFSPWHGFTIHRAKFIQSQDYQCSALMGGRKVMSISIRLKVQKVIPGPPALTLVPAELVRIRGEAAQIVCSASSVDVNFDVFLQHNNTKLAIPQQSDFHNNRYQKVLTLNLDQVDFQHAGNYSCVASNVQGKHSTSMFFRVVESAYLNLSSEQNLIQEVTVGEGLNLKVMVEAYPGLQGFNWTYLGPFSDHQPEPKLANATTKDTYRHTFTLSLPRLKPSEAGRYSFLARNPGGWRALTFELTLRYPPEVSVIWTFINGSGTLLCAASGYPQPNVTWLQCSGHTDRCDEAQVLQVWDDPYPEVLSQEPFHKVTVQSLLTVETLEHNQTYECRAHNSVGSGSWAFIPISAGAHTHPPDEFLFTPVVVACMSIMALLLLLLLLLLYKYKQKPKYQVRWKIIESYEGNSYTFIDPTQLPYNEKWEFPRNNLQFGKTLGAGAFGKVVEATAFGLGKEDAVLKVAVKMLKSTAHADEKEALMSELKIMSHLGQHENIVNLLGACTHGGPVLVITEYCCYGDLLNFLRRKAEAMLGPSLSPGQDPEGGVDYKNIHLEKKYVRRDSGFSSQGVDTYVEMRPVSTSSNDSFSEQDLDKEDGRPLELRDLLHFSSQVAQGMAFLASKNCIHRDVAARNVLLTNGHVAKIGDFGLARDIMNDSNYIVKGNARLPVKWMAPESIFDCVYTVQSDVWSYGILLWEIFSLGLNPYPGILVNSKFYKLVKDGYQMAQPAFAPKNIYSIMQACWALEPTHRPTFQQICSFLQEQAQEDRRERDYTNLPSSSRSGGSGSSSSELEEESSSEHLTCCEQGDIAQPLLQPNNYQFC

- IC50: 0.43 nM
SMILES: CC1(C)CC=C(c2cc([C@]3(O)C[C@@]4(CO)C=C[C@@](CO)(C3)O4)ccc2NC(=O)c2ncc(C#N)[nH]2)CC1 [US8497376, 2]

— BindingDB's records for patent US8497376 (Janssen Pharmaceutica, 2013)
